This note sets out measurements from patent publication US20240398828A1, “HETERO-ATOM CONTAINING COMPOUNDS AND USES THEREOF” (Kumquat Biosciences Inc., priority 2021, published 2024).

For one test, the target named is T1, PTPN2 (i.e., TC-PTP) (Homo sapiens, UniProt P17706).
T1 sequence (P17706 1-415): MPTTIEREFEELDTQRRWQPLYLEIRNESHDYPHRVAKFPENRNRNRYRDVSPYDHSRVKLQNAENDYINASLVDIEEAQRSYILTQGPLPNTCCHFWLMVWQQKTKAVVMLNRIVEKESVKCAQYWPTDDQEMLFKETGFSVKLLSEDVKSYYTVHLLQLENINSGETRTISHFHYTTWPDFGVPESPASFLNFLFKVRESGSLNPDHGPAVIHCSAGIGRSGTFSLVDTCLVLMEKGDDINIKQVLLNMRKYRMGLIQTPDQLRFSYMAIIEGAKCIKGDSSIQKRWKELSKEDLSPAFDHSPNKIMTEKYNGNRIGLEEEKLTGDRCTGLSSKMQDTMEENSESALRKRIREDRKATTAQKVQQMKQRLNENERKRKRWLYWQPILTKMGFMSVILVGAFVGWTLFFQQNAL
The experiment in a line: Phosphatase activity assay (DiFMUP substrate), PTPN2. The class given is biochemical. The settings on record: compounds binned ≤1 uM or >1 uM. The essentials:
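Enzyme (e.g. PTPN2 0.025 ng/ul) mixed about 2 min with compound at 10 serial concentrations in 50 mM HEPES pH 7.5, 150 mM NaCl, 0.5 mM EDTA, 1 mM DTT, 0.001% Tween-20 at room temperature. DiFMUP added at each enzyme's Km (about 45 μM for PTPN2). DiFMU fluorescence (ex 360/em 450 nm) followed 15-30 min; IC50 from 4-parameter fit of rates.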

The target of a further test is T2, PTPN1 (i.e., PTP1B) (Homo sapiens, UniProt P18031).
T2 sequence (P18031 1-435): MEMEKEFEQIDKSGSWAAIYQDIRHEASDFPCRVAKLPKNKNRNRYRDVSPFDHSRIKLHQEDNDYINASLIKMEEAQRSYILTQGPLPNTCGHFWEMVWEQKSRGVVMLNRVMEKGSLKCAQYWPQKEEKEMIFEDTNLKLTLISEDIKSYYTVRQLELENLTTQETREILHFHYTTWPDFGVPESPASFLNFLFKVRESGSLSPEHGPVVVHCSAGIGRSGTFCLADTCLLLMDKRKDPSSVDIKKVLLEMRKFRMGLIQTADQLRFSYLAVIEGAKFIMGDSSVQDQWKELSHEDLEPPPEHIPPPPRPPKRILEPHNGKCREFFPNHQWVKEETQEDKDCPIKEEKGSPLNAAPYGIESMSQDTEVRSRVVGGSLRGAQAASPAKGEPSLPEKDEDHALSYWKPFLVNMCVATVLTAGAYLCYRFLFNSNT
The experiment in a line: Phosphatase activity assay (DiFMUP substrate), PTP1B. The class given is biochemical. The settings on record: compounds binned ≤1 uM or >1 uM. The essentials:
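First, serially diluted inhibitor is mixed about 2 minutes with enzyme in pH 7.5 HEPES/NaCl/EDTA/DTT/Tween-20 buffer. Next, DiFMUP is added at the enzyme's Km, approximately 45 μM for PTPN2. Finally, DiFMU appearance is read continuously at room temperature and rates are fitted for IC50.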

Regarding `O=C1CN(c2c(O)ccc(-c3cn(-c4ccccc4)cn3)c2F)S(=O)(=O)N1` [Compound 190, 5-(2-fluoro-6-hydroxy-3-(1-phenyl-1H-imidazol-4-yl)phenyl)-1,2,5-thiadiazolidin-3-one 1,1-dioxide], the IC50 was at most 1 µM at PTPN2 (i.e., TC-PTP) and at most 1 µM on PTPN1 (i.e., PTP1B).
Turning to `CN(C)c1ccc(-c2ccc(O)c(N3CC(=O)NS3(=O)=O)c2F)cn1` [Compound 208, 5-(3-(6-(dimethylamino)pyridin-3-yl)-2-fluoro-6-hydroxyphenyl)-1,2,5-thiadiazolidin-3-one 1,1-dioxide], the concentration for half-maximal inhibition (IC50) at PTPN2 (i.e., TC-PTP) is at most 1 µM; at PTPN1 (i.e., PTP1B), at most 1 µM.
As for `Cc1noc(C)c1Cn1cc(-c2ccc(O)c(N3CC(=O)NS3(=O)=O)c2F)cn1` [Compound 309, 5-(3-(1-((3,5-dimethylisoxazol-4-yl)methyl)-1H-pyrazol-4-yl)-2-fluoro-6-hydroxyphenyl)-1,2,5-thiadiazolidin-3-one 1,1-dioxide], the IC50 on PTPN2 (i.e., TC-PTP) is at most 1 µM; at PTPN1 (i.e., PTP1B), at most 1 µM.
In the case of `N#CNC(=N)N1CCC=C(c2ccc(O)c(N3CC(=O)NS3(=O)=O)c2F)C1` [Compound 535, N-cyano-5-(3-(1,1-dioxido-4-oxo-1,2,5-thiadiazolidin-2-yl)-2-fluoro-4-hydroxyphenyl)-3,6-dihydropyridine-1(2H)-carboximidamide], the IC50 was at most 1 µM at PTPN2 (i.e., TC-PTP) and at most 1 µM at PTPN1 (i.e., PTP1B).
On to `O=C1CN(c2c(O)ccc(C3CCN(S(=O)(=O)C4CC4)CC3)c2F)S(=O)(=O)N1` [Compound 285, 5-(3-(1-(cyclopropylsulfonyl)piperidin-4-yl)-2-fluoro-6-hydroxyphenyl)-1,2,5-thiadiazolidin-3-one 1,1-dioxide], for which the concentration for half-maximal inhibition (IC50) is at most 1 µM on PTPN2 (i.e., TC-PTP) and at most 1 µM at PTPN1 (i.e., PTP1B).
Consider `Cc1cc(-c2ccc(O)c(N3CC(=O)NS3(=O)=O)c2F)nn1C` [Compound 454, 5-(3-(1,5-dimethyl-1H-pyrazol-3-yl)-2-fluoro-6-hydroxyphenyl)-1,2,5-thiadiazolidin-3-one 1,1-dioxide], for which the IC50 on PTPN2 (i.e., TC-PTP) was at most 1 µM; on PTPN1 (i.e., PTP1B), at most 1 µM.
Take `CC(C)CCn1cc(-c2ccc(O)c(N3CC(=O)NS3(=O)=O)c2Cl)cn1` [Compound 175, 5-(2-chloro-6-hydroxy-3-(1-isopentyl-1H-pyrazol-4-yl)phenyl)-1,2,5-thiadiazolidin-3-one 1,1-dioxide]: the concentration for half-maximal inhibition (IC50) is at most 1 µM on PTPN2 (i.e., TC-PTP) and at most 1 µM on PTPN1 (i.e., PTP1B).
Take `CN1CC2(CCC(n3cc(-c4ccc(O)c(N5CC(=O)NS5(=O)=O)c4F)cn3)C2)C1` (centres unmarked) [Compound 442, 5-(2-fluoro-6-hydroxy-3-(1-(2-methyl-2-azaspiro[3.4]octan-6-yl)-1H-pyrazol-4-yl)phenyl)-1,2,5-thiadiazolidin-3-one 1,1-dioxide]: the concentration for half-maximal inhibition (IC50) on PTPN2 (i.e., TC-PTP) is at most 1 µM; on PTPN1 (i.e., PTP1B), at most 1 µM.
`CCCCC1C=C(c2ccc(O)c(N3CC(=O)NS3(=O)=O)c2F)CN1` (centres unmarked) [Compound 523, 5-(3-(5-butyl-2,5-dihydro-1H-pyrrol-3-yl)-2-fluoro-6-hydroxyphenyl)-1,2,5-thiadiazolidin-3-one 1,1-dioxide]: the half-maximal inhibitory concentration (IC50) at PTPN2 (i.e., TC-PTP) is at most 1 µM; on PTPN1 (i.e., PTP1B), at most 1 µM.
Turning to `Cc1n[nH]c(-c2ccc(O)c(N3CC(=O)NS3(=O)=O)c2F)c1C` [Compound 375, 5-(3-(3,4-dimethyl-1H-pyrazol-5-yl)-2-fluoro-6-hydroxyphenyl)-1,2,5-thiadiazolidin-3-one 1,1-dioxide], the half-maximal inhibitory concentration (IC50) on PTPN2 (i.e., TC-PTP) was at most 1 µM; at PTPN1 (i.e., PTP1B), at most 1 µM.
`O=C1CN(c2c(O)ccc(-c3cnn(C(=O)NC4CC4)c3)c2F)S(=O)(=O)N1` [Compound 514, N-cyclopropyl-4-(3-(1,1-dioxido-4-oxo-1,2,5-thiadiazolidin-2-yl)-2-fluoro-4-hydroxyphenyl)-1H-pyrazole-1-carboxamide]: the IC50 at PTPN2 (i.e., TC-PTP) was at most 1 µM; at PTPN1 (i.e., PTP1B) it was at most 1 µM.
In the case of `O=C1CN(c2c(O)ccc(-c3nnc(-c4ccccc4)o3)c2F)S(=O)(=O)N1` [Compound 121, 5-(2-fluoro-6-hydroxy-3-(5-phenyl-1,3,4-oxadiazol-2-yl)phenyl)-1,2,5-thiadiazolidin-3-one 1,1-dioxide], the IC50 on PTPN2 (i.e., TC-PTP) was over 1 µM; at PTPN1 (i.e., PTP1B), over 1 µM.
Turning to `O=C1CN(c2c(O)ccc(-c3cnn(C4CCCC4)c3)c2F)S(=O)(=O)N1` [Compound 123, 5-(3-(1-cyclopentyl-1H-pyrazol-4-yl)-2-fluoro-6-hydroxyphenyl)-1,2,5-thiadiazolidin-3-one 1,1-dioxide], the IC50 on PTPN2 (i.e., TC-PTP) was at most 1 µM; on PTPN1 (i.e., PTP1B), at most 1 µM.
For the compound `CCCN1CCCC(c2ccc(O)c(N3CC(=O)NS3(=O)=O)c2F)C1` (centres unmarked) [Compound 276, 5-(2-fluoro-6-hydroxy-3-(1-propylpiperidin-3-yl)phenyl)-1,2,5-thiadiazolidin-3-one 1,1-dioxide], the IC50 at PTPN2 (i.e., TC-PTP) was over 1 µM; at PTPN1 (i.e., PTP1B), at most 1 µM.
For the compound `CC(C)CCn1ccc(-c2ccc(O)c(N3CC(=O)NS3(=O)=O)c2F)n1` [Compound 196, 5-(2-fluoro-6-hydroxy-3-(1-isopentyl-1H-pyrazol-3-yl)phenyl)-1,2,5-thiadiazolidin-3-one 1,1-dioxide], the IC50 was at most 1 µM at PTPN2 (i.e., TC-PTP) and at most 1 µM on PTPN1 (i.e., PTP1B).
On to `Cn1cc(-c2ccc(O)c(N3CC(=O)NS3(=O)=O)c2F)cn1` [Compound 227, 5-(2-fluoro-6-hydroxy-3-(1-methyl-1H-pyrazol-4-yl)phenyl)-1,2,5-thiadiazolidin-3-one 1,1-dioxide], for which the IC50 at PTPN2 (i.e., TC-PTP) was at most 1 µM; on PTPN1 (i.e., PTP1B), at most 1 µM.
For `Cc1c(-c2cnn(CCC(C)C)c2)ccc(O)c1N1CC(=O)NS1(=O)=O` [Compound 119, 5-(6-hydroxy-3-(1-isopentyl-1H-pyrazol-4-yl)-2-methylphenyl)-1,2,5-thiadiazolidin-3-one 1,1-dioxide], the concentration for half-maximal inhibition (IC50) was at most 1 µM on PTPN2 (i.e., TC-PTP) and at most 1 µM at PTPN1 (i.e., PTP1B).
On to `N#Cc1cccc(-n2cnc(-c3ccc(O)c(N4CC(=O)NS4(=O)=O)c3F)c2)c1` [Compound 361, 3-(4-(3-(1,1-dioxido-4-oxo-1,2,5-thiadiazolidin-2-yl)-2-fluoro-4-hydroxyphenyl)-1H-imidazol-1-yl)benzonitrile], for which the IC50 at PTPN2 (i.e., TC-PTP) was at most 1 µM; on PTPN1 (i.e., PTP1B), at most 1 µM.
`O=C1CN(c2c(O)ccc(-c3cn(C4CCOCC4)cn3)c2F)S(=O)(=O)N1` [Compound 328, 5-(2-fluoro-6-hydroxy-3-(1-(tetrahydro-2H-pyran-4-yl)-1H-imidazol-4-yl)phenyl)-1,2,5-thiadiazolidin-3-one 1,1-dioxide]: the 50% inhibitory concentration (IC50) on PTPN2 (i.e., TC-PTP) was at most 1 µM; at PTPN1 (i.e., PTP1B), at most 1 µM.
As for `O=C1CN(c2c(O)ccc(-c3cnn(Cc4cccnc4)c3)c2F)S(=O)(=O)N1` [Compound 187, 5-(2-fluoro-6-hydroxy-3-(1-(pyridin-3-ylmethyl)-1H-pyrazol-4-yl)phenyl)-1,2,5-thiadiazolidin-3-one 1,1-dioxide], the 50% inhibitory concentration (IC50) is at most 1 µM on PTPN2 (i.e., TC-PTP) and at most 1 µM at PTPN1 (i.e., PTP1B).
For the compound `Cn1cnc(-c2ccc(O)c(N3CC(=O)NS3(=O)=O)c2F)c1` [Compound 115], the IC50 at PTPN2 (i.e., TC-PTP) is at most 1 µM; at PTPN1 (i.e., PTP1B), at most 1 µM.
As to `O=C1CN(c2c(O)ccc(-c3cc(N4CCCCC4)n[nH]3)c2F)S(=O)(=O)N1` [Compound 332, 5-(2-fluoro-6-hydroxy-3-(3-(piperidin-1-yl)-1H-pyrazol-5-yl)phenyl)-1,2,5-thiadiazolidin-3-one 1,1-dioxide], the half-inhibitory concentration (IC50) on PTPN2 (i.e., TC-PTP) was at most 1 µM; on PTPN1 (i.e., PTP1B), at most 1 µM.
